The values below come from paper PMC10500001, “Dual hypoxia-responsive supramolecular complex for cancer target therapy” (Nature Communications, 2023).

Values joined by “and” are separate entries in the source; they are usually repeats but may differ in a detail not shown here. Identical values can stand only once.

In data set [1] the test system is PANC1 cells. Kind of data set: CLSM fluorescence imaging in living cells under normoxic and hypoxic conditions. The class given is cell-based, human. Conditions: 10 μM. The method, then: In this assay, SBE-β-CD was employed to generate CY5-DM@SBE-β-CD as a benchmark. […] The increased fluorescence manifested the hypoxia-selective release performance of the supramolecular complex.
PANC1 cells (1 × 10^5 cells/well) were seeded into the confocal imaging chambers. […] After a 6 h incubation under normoxic conditions, the culture medium was exchanged with fresh medium. Thereafter, the cells were incubated at 37 °C for 18 h under either normoxic or hypoxic conditions, respectively. Subsequently, the cells were fixed in 4% paraformaldehyde (PFA; Biosharp, Hefei, China) for 15 min, washed with PBS buffer three times and then imaged using CLSM. Cell nuclei were counterstained with DAPI (C0060, Solarbio, Beijing, China) for 5 min.

A further data set deals with PANC1 tumor-bearing mice. Nature of the data set: In vivo fluorescence imaging. Conditions: single mouse. The protocol:
For animals and tumor model, male BALB/c nude mice at 5–6 weeks were purchased from Vital River Laboratory Animal Technology (Beijing, China). All animal experiments were performed according to the institutional animal care guidelines established by the Institutional Animal Care and Use Committee of Nankai University. To establish the PANC1 tumor-bearing mouse model, 1 × 10^6 PANC1 cells were injected subcutaneously into the right chest of BALB/c nude mice. After the tumor grows to a suitable size, the tumor was divided into small pieces and then subcutaneously incubated into the right chest of other mice. […] The ex vivo fluorescence imaging of major organs at 24 h post injection was imaged by IVIS. Fluorescent images were analyzed using Living Image 3.1 (Caliper Life Sciences).

Data set [2] deals with PANC1 cells. Nature of the data set: Cellular uptake mechanism with endocytosis inhibitors (flow cytometry). The class given is cell-based, human. Conditions: uptake of the SAC5A complex with the inhibitor, 4 replicates. The method, then: To examine the cellular uptake mechanism of SAC5A complex, PANC1 cells (3 × 10^5 cells/well) were seeded into the six-well plates and incubated overnight. The cells were pretreated with different endocytosis inhibitors for 1 h: chlorpromazine (CHP, 20 μM, an inhibitor of clathrin-mediated endocytosis), Amiloride (AMI, 500 μM, an inhibitor of macropinocytosis), Genistein (GEN, 200 μM, an inhibitor of caveolae-mediated endocytosis), methyl-β-cyclodextrin (M-β-CD, 5 mM, an inhibitor of lipid rafts-mediated endocytosis), the cells were also pre-incubated under 4 °C for 1 h (energy-dependent endocytosis). […] After that, the cells were collected and washed three times with PBS, and then analyzed by flow cytometry. All experiments were carried out four times. […]
Chlorpromazine (CHP): inhibitor of clathrin-mediated endocytosis; amiloride (AMI): inhibitor of macropinocytosis; Genistein (GEN): inhibitor of caveolae-mediated endocytosis; Methyl-β-cyclodextrin (M-β-CD): lipid rafts-mediated endocytosis; 4 °C: energy-mediated endocytosis. Data are presented as […]
A general note: A flow cytometer gives signals particle by particle.

Details of data set [3]: method as in PMID 17268062. Conditions: cited from earlier work.
Data set [4] in a line: Competitive fluorescence titration of LCG@SC5A with NMP-BE. The class given is binding. Conditions: HEPES pH 7.4. The protocol: The complexation of SAC5A with reporter dye (RhB) was measured by direct fluorescence titrations. A mixed solution containing known amounts of SAC5A and RhB was sequentially injected into 2.50 mL RhB solution in a quartz cuvette. The dye concentrations in mixed solution and cuvette are the same to keep dye concentration constant in the course of titrations. The fluorescence intensity was measured (λex = 554 nm for RhB) before the first addition and after every addition until a plateau was reached. By fitting the fluorescence intensity (λem = 575 nm for RhB) according to a 1:1 host-guest binding stoichiometry, the association constant was obtained. SC5A (LCG) and SBE-β-CD (NR) used the same method.
The complexation of SAC5A with NMP-BE was measured by competitive fluorescence titrations. […] The fluorescence intensity was measured (λex = 554 nm for RhB) before the first addition and after every addition. The association constant was obtained by fitting fluorescence intensity (λem = 575 nm for RhB) according to a 1:1 competitive binding model. […]
2.8 Fluorescence titrations of SC5A and SBE-β-CD with NMP-BE
Supplementary Figure 14. Competitive fluorescence titration of LCG@SC5A (1.0/1.0 µM) with NMP-BE (up to 80 µM) in HEPES buffer (10 mM, pH = 7.4) at 25 ℃, λex =

On the set-up of data set [5]: method as in earlier work. To be noted: ref 2 of the supplement; cited from earlier work.

As to `CN1C(=CC=CC=CC2=[N+](C)c3ccccc3C2(C)C)C(C)(C)c2ccccc21` [CY5-DM, 1,1’,3,3,3’,3’-hexamethylindodicarbocyanine], in the data set with PANC1 cells [1], the “difference in fluorescence intensities normoxic versus hypoxic” value is “no significant difference”. In addition, the “FL intensity of the tumor in vivo” value with PANC1 tumor-bearing mice (1h post iv injection) was 1.80E+09 and 1.62E+09; with PANC1 tumor-bearing mice (3h post iv injection) it was 1.74E+09 and 1.60E+09; in the data set with PANC1 tumor-bearing mice (6h post iv injection) it was 1.41E+09 and 1.34E+09 and 1.52E+09; in the data set on PANC1 tumor-bearing mice (12h post iv injection), 1.33E+09 and 1.26E+09; in the data set with PANC1 tumor-bearing mice (24h post iv injection) it was 8.57E+08 and 6.21E+08 and 9.14E+08.

As for `O=c1c(-c2ccc(O)cc2)coc2cc(O)cc(O)c12` [GEN], the “cellular uptake relative to Ctrl (flow cytometry) in presence of endocytosis inhibitor” value in the data set with PANC1 cells [2] is 88.04 and 87.28 and 70.24 and 68.53.

Regarding `CN(C)CCCN1c2ccccc2Sc2ccc(Cl)cc21` [CHP], in the data set on PANC1 cells [2], the “cellular uptake relative to Ctrl (flow cytometry) in presence of endocytosis inhibitor” value was 134.50 and 125.70 and 108.52 and 108.27.

`N=C(N)NC(=O)c1nc(Cl)c(N)nc1N` [AMI]: the “cellular uptake relative to Ctrl (flow cytometry) in presence of endocytosis inhibitor” value in the data set with PANC1 cells [2] is 144.29 and 129.79 and 106.33 and 103.16.

Take `C=C1/C=C\C(=O)N(C)CC(=O)NC(C(O)C(N)=O)C(=O)OC(C(C)CCCCCCCCCCCC(C)C)C(C)C(=O)N1` (stereo not shown) [rakicidin A]: the hypoxia-selective cytotoxicity result in data set [3] is reported as “moderate hypoxia-selective cytotoxicity”.

As for `O=S(=O)(O)c1cc2c(O)c(c1)Cc1cc(S(=O)(=O)O)cc(c1O)Cc1cc(S(=O)(=O)O)cc(c1O)Cc1cc(S(=O)(=O)O)cc(c1O)Cc1cc(S(=O)(=O)O)cc(c1O)C2` [SC5A, sulfonated calix[5]arene], the “bonding ability to NMP-BE” value in data set [4] is listed as “almost no bonding ability”. In data set [5], the “1:1 binding affinity between SC5A and LCG” value is on record as 1.48 106 M−1.

Take M-β-CD: the “cellular uptake relative to Ctrl (flow cytometry) in presence of endocytosis inhibitor” value in the data set with PANC1 cells [2] is 121.64 and 117.67 and 92.45 and 90.16.
